From US10428044B2, “3-amino-1,5,6,7-tetrahydro-4H-indol-4-ones” (Bayer Pharma Aktiengesellschaft, priority 2014, dated 2019)

Target: (recombinant) catalytic domain of human Bub1 (amino acids 704-1085) (Homo sapiens (Human), UniProt O43683)
Assay: Bub1 kinase assay (TR-FRET)
Type: biochemical
Conditions: ATP 10 μM final, peptide substrate 1 μM final, 60 min at 22° C., read-out: Biological Assay: Bub1 kinase assay median IC50
In short: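 Compounds were serially diluted 1:3.4 from 2 mM DMSO stocks and incubated with the enzyme reaction for 60 min at 22° C. The reaction was stopped with EDTA, and biotinylated peptide phosphorylation was read by TR-FRET using Eu anti-mouse IgG, anti-phosphoserine antibody and streptavidin-XL665. IC50 was fitted by 4-parameter logistic to inhibition normalized to no-inhibitor and no-enzyme controls.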

Sequence of (recombinant) catalytic domain of human Bub1 (amino acids 704-1085) (O43683 704-1085): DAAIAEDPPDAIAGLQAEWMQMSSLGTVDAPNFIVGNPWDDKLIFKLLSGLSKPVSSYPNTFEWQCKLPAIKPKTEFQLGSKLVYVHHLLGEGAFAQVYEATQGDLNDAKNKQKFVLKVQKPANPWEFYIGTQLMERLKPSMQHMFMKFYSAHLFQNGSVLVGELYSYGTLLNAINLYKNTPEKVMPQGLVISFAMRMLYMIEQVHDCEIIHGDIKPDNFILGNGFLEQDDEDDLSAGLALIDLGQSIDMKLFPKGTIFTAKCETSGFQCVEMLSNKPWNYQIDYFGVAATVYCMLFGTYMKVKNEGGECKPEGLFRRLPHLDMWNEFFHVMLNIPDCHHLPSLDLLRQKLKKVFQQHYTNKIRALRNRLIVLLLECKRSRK

| Compound | IC50 |
| --- | --- |
| CO/N=C1\CC(C)(C)Cc2[nH]c(-c3ccncc3)c(Nc3ccccc3)c21 [Example 471, 4-(methoxyimino)-6,6-dimethyl-N-phenyl-2-(pyridin-4-yl)-4,5,6,7-tetrahydro-1H-indol-3-amine] | 4430 nM |
| CC1(C)CC(=O)c2c([nH]c(-c3ccnc(NC(=O)c4ccc(F)c(F)c4)c3)c2Nc2ccccc2)C1 [Example 473, N-{4-[6,6-dimethyl-4-oxo-3-(phenylamino)-4,5,6,7-tetrahydro-1H-indol-2-yl]pyridin-2-yl}-3,4-difluorobenzamide] | 10.3 nM |
| COc1cc(C(=O)Nc2cc(-c3[nH]c4c(c3Nc3ccccc3)C(=O)CC(C)(C)C4)ccn2)ccc1F [Example 474, N-{4-[6,6-dimethyl-4-oxo-3-(phenylamino)-4,5,6,7-tetrahydro-1H-indol-2-yl]pyridin-2-yl}-4-fluoro-3-methoxybenzamide] | 8.63 nM |
| CC1(C)CC(=O)c2c([nH]c(-c3ccnc(NC(=O)C(C)(C)F)c3)c2Nc2ccccc2)C1 [Example 475, N-{4-[6,6-dimethyl-4-oxo-3-(phenylamino)-4,5,6,7-tetrahydro-1H-indol-2-yl]pyridin-2-yl}-2-fluoro-2-methylpropanamide] | 38.7 nM |
| CC1(C)CC(=O)c2c([nH]c(-c3ccnc(NC(=O)c4cnn(Cc5ccccc5)c4)c3)c2Nc2ccccc2)C1 [Example 478, 1-benzyl-N-{4-[6,6-dimethyl-4-oxo-3-(phenylamino)-4,5,6,7-tetrahydro-1H-indol-2-yl]pyridin-2-yl}-1H-pyrazole-4-carboxamide] | 4.23 nM |
| COc1ccc(Cn2cc(C(=O)Nc3cc(-c4[nH]c5c(c4Nc4ccccc4)C(=O)CC(C)(C)C5)ccn3)cn2)cc1 [Example 479, N-{4-[6,6-dimethyl-4-oxo-3-(phenylamino)-4,5,6,7-tetrahydro-1H-indol-2-yl]pyridin-2-yl}-1-(4-methoxybenzyl)-1H-pyrazole-4-carboxamide] | 5.09 nM |
| CC1(C)CC(=O)c2c([nH]c(-c3ccnc(NC(=O)c4cncs4)c3)c2Nc2ccccc2)C1 [Example 480, N-{4-[6,6-dimethyl-4-oxo-3-(phenylamino)-4,5,6,7-tetrahydro-1H-indol-2-yl]pyridin-2-yl}-1,3-thiazole-5-carboxamide] | 6.3 nM |
| Cc1ccc(CO)c(Nc2c(-c3ccncc3)[nH]c3c2C(=O)CC(C)(C)C3)c1 [Example 481, 3-{[2-(hydroxymethyl)-5-methylphenyl]amino}-6,6-dimethyl-2-(pyridin-4-yl)-1,5,6,7-tetrahydro-4H-indol-4-one] | 78.6 nM |
| Cc1ccc(Nc2c(-c3ccncc3)[nH]c3c2C(=O)CC(C)(C)C3)c(CO)c1 [Example 482, 3-{[2-(hydroxymethyl)-4-methylphenyl]amino}-6,6-dimethyl-2-(pyridin-4-yl)-1,5,6,7-tetrahydro-4H-indol-4-one] | 12.2 nM |
| Cc1cccc(Nc2c(-c3ccncc3)[nH]c3c2C(=O)CC(C)(C)C3)c1CO [Example 483, 3-{[2-(hydroxymethyl)-3-methylphenyl]amino}-6,6-dimethyl-2-(pyridin-4-yl)-1,5,6,7-tetrahydro-4H-indol-4-one] | 9.48 nM |
| O=C1CCCc2[nH]c(-c3ccnc(NCCCCc4ccccc4)c3)c(Nc3ccccc3)c21 [Example 484, 3-(phenylamino)-2-{2-[(4-phenylbutyl)amino]pyridin-4-yl}-1,5,6,7-tetrahydro-4H-indol-4-one] | 907 nM |
| CC1(C)CC(=O)c2c([nH]c(-c3ccncc3)c2Nc2ccc(F)cc2CO)C1 [Example 485, 3-{[4-fluoro-2-(hydroxymethyl)phenyl]amino}-6,6-dimethyl-2-(pyridin-4-yl)-1,5,6,7-tetrahydro-4H-indol-4-one] | 5.84 nM |
| CC1(C)CC(=O)c2c([nH]c(-c3ccncc3)c2Nc2cccc(F)c2CO)C1 [Example 486, 3-{[3-fluoro-2-(hydroxymethyl)phenyl]amino}-6,6-dimethyl-2-(pyridin-4-yl)-1,5,6,7-tetrahydro-4H-indol-4-one] | 3.45 nM |
| CC1(C)CC(=O)c2c([nH]c(-c3ccncc3)c2Nc2ccccc2C(C)(C)O)C1 [Example 488, 3-{[2-(2-hydroxypropan-2-yl)phenyl]amino}-6,6-dimethyl-2-(pyridin-4-yl)-1,5,6,7-tetrahydro-4H-indol-4-one] | 39.1 nM |
| O=C1CCCc2[nH]c(-c3ccnc(NCCCc4ccccc4)c3)c(Nc3ccccc3)c21 [Example 490, 3-(phenylamino)-2-{2-[(3-phenylpropyl)amino]pyridin-4-yl}-1,5,6,7-tetrahydro-4H-indol-4-one] | 2560 nM |
| Cc1ncsc1COCC(=O)Nc1cc(-c2[nH]c3c(c2Nc2ccccc2)C(=O)CCC3)ccn1 [Example 496, 2-[(4-methyl-1,3-thiazol-5-yl)methoxy]-N-{4-[4-oxo-3-(phenylamino)-4,5,6,7-tetrahydro-1H-indol-2-yl]pyridin-2-yl}acetamide] | 6.46 nM |
| CC1(C)CC(=O)c2c([nH]c(-c3ccnc(NCCCc4ccccc4)c3)c2Nc2ccccc2)C1 [Example 497, 6,6-dimethyl-3-(phenylamino)-2-{2-[(3-phenylpropyl)amino]pyridin-4-yl}-1,5,6,7-tetrahydro-4H-indol-4-one] | 1440 nM |
| O=C1CCCc2[nH]c(-c3ccnc(NCc4cscn4)c3)c(Nc3ccccc3)c21 [Example 501, 3-(phenylamino)-2-{2-[(1,3-thiazol-4-ylmethyl)amino]pyridin-4-yl}-1,5,6,7-tetrahydro-4H-indol-4-one] | 96.7 nM |
| O=C(COCC(F)(F)F)Nc1cc(-c2[nH]c3c(c2Nc2ccccc2)C(=O)CCC3)ccn1 [Example 502, N-{4-[4-oxo-3-(phenylamino)-4,5,6,7-tetrahydro-1H-indol-2-yl]pyridin-2-yl}-2-(2,2,2-trifluoroethoxy)acetamide] | 14.4 nM |
| Cn1ccc(C(=O)Nc2cc(-c3[nH]c4c(c3Nc3ccccc3)C(=O)CC(C)(C)C4)ccn2)n1 [Example 504, N-{4-[6,6-dimethyl-4-oxo-3-(phenylamino)-4,5,6,7-tetrahydro-1H-indol-2-yl]pyridin-2-yl}-1-methyl-1H-pyrazole-3-carboxamide] | 6.14 nM |

The remaining compounds from weak to strong by IC50, led by results:

| IC50 | Compound |
| --- | --- |
| 3320 nM | O=C1CCCc2[nH]c(-c3ccnc(NCCc4ccccc4)c3)c(Nc3ccccc3)c21 [Example 489, 3-(phenylamino)-2-{2-[(2-phenylethyl)amino]pyridin-4-yl}-1,5,6,7-tetrahydro-4H-indol-4-one] |
| 1260 nM | CC1(C)CC(=O)c2c([nH]c(-c3ccnc(NCCc4ccccc4)c3)c2Nc2ccccc2)C1 [Example 498, 6,6-dimethyl-3-(phenylamino)-2-{2-[(2-phenylethyl)amino]pyridin-4-yl}-1,5,6,7-tetrahydro-4H-indol-4-one] |
| 1240 nM | CCO/N=C1\CC(C)(C)Cc2[nH]c(-c3ccncc3)c(Nc3ccccc3)c21 [Example 491, 4-(ethoxyimino)-6,6-dimethyl-N-phenyl-2-(pyridin-4-yl)-4,5,6,7-tetrahydro-1H-indol-3-amine] |
| 830 nM | O=C1CCCc2[nH]c(-c3ccnc(NCc4ccc(F)cc4)c3)c(Nc3ccccc3)c21 [Example 499, 2-{2-[(4-fluorobenzyl)amino]pyridin-4-yl}-3-(phenylamino)-1,5,6,7-tetrahydro-4H-indol-4-one] |
| 356 nM | O=C1CCCc2[nH]c(-c3ccnc(NCc4cncs4)c3)c(Nc3ccccc3)c21 [Example 500, 3-(phenylamino)-2-{2-[(1,3-thiazol-5-ylmethyl)amino]pyridin-4-yl}-1,5,6,7-tetrahydro-4H-indol-4-one] |
| 36.1 nM | O=C1CCCc2[nH]c(-c3ccncc3)c(Nc3ccccn3)c21 [Example 503, 2-(pyridin-4-yl)-3-(pyridin-2-ylamino)-1,5,6,7-tetrahydro-4H-indol-4-one] |
| 10.9 nM | Cn1ncnc1COCC(=O)Nc1cc(-c2[nH]c3c(c2Nc2ccccc2)C(=O)CCC3)ccn1 [Example 494, 2-[(1-methyl-1H-1,2,4-triazol-5-yl)methoxy]-N-{4-[4-oxo-3-(phenylamino)-4,5,6,7-tetrahydro-1H-indol-2-yl]pyridin-2-yl}acetamide] |
| 10.6 nM | O=C(COCc1ccccn1)Nc1cc(-c2[nH]c3c(c2Nc2ccccc2)C(=O)CCC3)ccn1 [Example 495, N-{4-[4-oxo-3-(phenylamino)-4,5,6,7-tetrahydro-1H-indol-2-yl]pyridin-2-yl}-2-(pyridin-2-ylmethoxy)acetamide] |
| 8.63 nM | Cn1ccnc1COCC(=O)Nc1cc(-c2[nH]c3c(c2Nc2ccccc2)C(=O)CCC3)ccn1 [Example 493, 2-[(1-methyl-1H-imidazol-2-yl)methoxy]-N-{4-[4-oxo-3-(phenylamino)-4,5,6,7-tetrahydro-1H-indol-2-yl]pyridin-2-yl}acetamide] |
| 8.04 nM | CC1(C)CC(=O)c2c([nH]c(-c3ccnc(NC(=O)COCc4ccccc4)c3)c2Nc2ccccc2)C1 [Example 476, 2-(benzyloxy)-N-{4-[6,6-dimethyl-4-oxo-3-(phenylamino)-4,5,6,7-tetrahydro-1H-indol-2-yl]pyridin-2-yl}acetamide] |
| 6.62 nM | CC1(C)CC(=O)c2c([nH]c(-c3ccnc(NC(=O)C4CC4(F)F)c3)c2Nc2ccccc2)C1 (stereo not drawn) [Example 477, N-{4-[6,6-dimethyl-4-oxo-3-(phenylamino)-4,5,6,7-tetrahydro-1H-indol-2-yl]pyridin-2-yl}-2,2-difluorocyclopropanecarboxamide] |
| 5.04 nM | CC1(C)CC(=O)c2c([nH]c(-c3ccnc(NC(=O)c4cnn(C(C)(C)C)c4)c3)c2Nc2ccccc2)C1 [Example 472, 1-tert-butyl-N-{4-[6,6-dimethyl-4-oxo-3-(phenylamino)-4,5,6,7-tetrahydro-1H-indol-2-yl]pyridin-2-yl}-1H-pyrazole-4-carboxamide] |
| 3.35 nM | CC1(C)CC(=O)c2c([nH]c(-c3ccncc3)c2Nc2cc(F)ccc2CO)C1 [Example 487, 3-{[5-fluoro-2-(hydroxymethyl)phenyl]amino}-6,6-dimethyl-2-(pyridin-4-yl)-1,5,6,7-tetrahydro-4H-indol-4-one] |
